Source: patent US9969775B2, “CGRP antagonist peptides” (Ferring B.V., priority 2015, dated 2018)
Where two headings read alike, the source gives them in different places. Numbered stars: 1 amine (or outer) side, 2 acyl side, 3 side chain; on linkers, the order of the positions; unused ones are H or OH. Bridge positions count the residues as written; N and C are the ends. Square brackets hold non-standard residues; d marks the D form. Peptide text beside a SMILES is read from it. * marks the point of attachment. Phe(3-CH2NH2) = O=C([C@H](Cc1cccc(CN[*:3])c1)N[*:1])[*:2]; Phe(2-CONH2) = NC(=O)c1ccccc1C[C@H](N)C(=O)O; X5 = O=C([C@H](Cc1ccc(CO)cc1)N[*:1])[*:2]; Triazol3yl(1,2,4-5-NH2) = Nc1nc(*)n[nH]1; Phe(4-NH2) = Nc1ccc(C[C@H](N)C(=O)O)cc1; Lys(iPr) = CC(C)NCCCC[C@H](N)C(=O)O; Picolinoyl(5-F) = O=C(c1ccc(F)cn1)*; Orn(iPr) = CC(C)NCCC[C@H](N)C(=O)O; Dab(iPr) = CC(C)NCC[C@H](N)C(=O)O; Benzoyl(4-F) = O=C(c1ccc(F)cc1)*; Oxazole2carbonyl = O=C(c1ncco1)*; 3Pal = N[C@@H](Cc1cccnc1)C(=O)O; Picolinoyl = O=C(c1ccccn1)*; ΔPro = O=C(O)[C@@H]1C=CCN1; Orn = NCCC[C@H](N)C(=O)O; X8 = CC(C)NCCOCCOCC(=O)*; Dab = NCC[C@H](N)C(=O)O; Dap = NC[C@H](N)C(=O)O; X12 = Cc1cccnc1C(=O)*; Bz = O=C(c1ccccc1)*; X10 = O=C(c1nccs1)*

How the values were obtained:
[1] = molecular target: T1, hCGRP receptor (CALCRL:RAMP1) (Homo sapiens, UniProt O60894+Q16602); assay: CGRP receptor antagonist activity measured by cAMP assay (HTRF); type: cell-based; settings: for Emax: read-out: hCGRP-R Efficacy Antag (%) Ave; for IC50: GeneBLAzer CALCRL:RAMP1-CRE-bla Freestyle 293F cells, 30 minutes
T1 construct: host or cells: GeneBLAzer CALCRL:RAMP1-CRE-bla Freestyle 293F
T1 sequence (Q16602 23-461): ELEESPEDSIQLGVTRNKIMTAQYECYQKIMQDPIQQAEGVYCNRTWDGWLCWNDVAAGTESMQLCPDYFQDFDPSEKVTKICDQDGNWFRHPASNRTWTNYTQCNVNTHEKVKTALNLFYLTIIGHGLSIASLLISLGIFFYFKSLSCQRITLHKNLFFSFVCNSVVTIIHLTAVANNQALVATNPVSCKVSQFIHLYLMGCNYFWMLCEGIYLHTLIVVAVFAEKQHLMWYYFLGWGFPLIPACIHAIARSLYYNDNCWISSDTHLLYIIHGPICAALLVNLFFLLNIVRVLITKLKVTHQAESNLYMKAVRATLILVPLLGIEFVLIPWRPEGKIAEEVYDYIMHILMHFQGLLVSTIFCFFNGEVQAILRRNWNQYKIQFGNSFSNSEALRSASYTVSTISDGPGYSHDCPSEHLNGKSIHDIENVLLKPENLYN
T1 sequence (O60894 27-148): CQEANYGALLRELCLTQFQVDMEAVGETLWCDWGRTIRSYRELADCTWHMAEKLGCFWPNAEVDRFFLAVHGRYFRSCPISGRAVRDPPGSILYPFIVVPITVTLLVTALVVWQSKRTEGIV

[2] = molecular target: T2, hAM2 receptor (CALCRL:RAMP3) (Homo sapiens, UniProt O60896+Q16602); assay: AM2 receptor antagonist activity measured by cAMP assay (HTRF); type: cell-based; settings: for Emax: read-out: hAM2-R Efficacy Antag (%) Ave; for IC50: GeneBLAzer CALCRL:RAMP3-CRE-bla Freestyle 293F cells; for selectivity ratio CGRP/AM2: selectivity ratio for hCGRP over hAM2, calculated from the IC50 values
T2 construct: expressed in transfected cells; host or cells: GeneBLAzer CALCRL:RAMP3-CRE-bla Freestyle 293F
T2 sequence (Q16602 23-461): as the sequence (Q16602 23-461) above
T2 sequence (O60896 24-148): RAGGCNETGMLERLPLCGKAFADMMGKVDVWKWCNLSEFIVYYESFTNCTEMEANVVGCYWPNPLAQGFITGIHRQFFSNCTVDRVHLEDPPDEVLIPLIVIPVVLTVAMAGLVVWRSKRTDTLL

[3] = % MPE: percent of the maximal possible effect, agonist human α-CGRP
[4] = agonist human α-CGRP, read-out: hCGRP-R IC50 Ave
[5] = % MPE: percent of the maximal possible effect, agonist human adrenomedullin
[6] = agonist human adrenomedullin, read-out: hAM2-R IC50 Ave

CC(C)NCCC[C@@H]1NC(=O)[C@@H](NC(=O)[C@H](Cc2ccccc2C(N)=O)NC(=O)[C@H](NC(=O)c2ncco2)C(C)C)CSSC[C@@H](C(=O)N[C@@H](Cc2cccnc2)C(N)=O)NC(=O)[C@H](Cc2cccc(CN)c2)NC(=O)[C@@H]2C=CCN2C(=O)CNC(=O)[C@H](C(C)C)NC(=O)[C@H](CC(=O)O)NC1=O [Compound 43, Oxazole-2-carbonyl-D-Val-Phe(2-Cbm)-c(Cys-Orn(iPr)-Asp-Val-Gly-Dhp-Phe(3-CH2NH2)-Cys)-3Pal-NH2] (Oxazole2carbonyl-[dV][Phe(2-CONH2)]C[Orn(iPr)]DVG[ΔPro][Phe(3-CH2NH2)]C[3Pal]-NH2; disulfide 3-10)
Emax [1, 3]: 100% | IC50 [1, 4]: 0.04 nM | Emax [2, 5]: 101% | IC50 [2, 6]: 180 nM | selectivity ratio CGRP/AM2 [2]: 4693

CC(C)NCCOCCOCC(=O)NCCC[C@@H]1NC(=O)[C@@H](NC(=O)[C@H](Cc2ccc(O)cc2)NC(=O)[C@H](NC(=O)c2ccc(F)cn2)C(C)C)CSSC[C@@H](C(=O)N[C@@H](Cc2cccnc2)C(N)=O)NC(=O)[C@H](Cc2ccccc2)NC(=O)[C@@H]2CCCN2C(=O)CNC(=O)[C@H](C(C)C)NC(=O)[C@H](CC(=O)O)NC1=O [Compound 13, Picolinoyl(5-F)-D-Val-Tyr-c(Cys-Orn(CO—CH2—(O—(CH2)2)2—NH-iPr)-Asp-Val-Gly-Pro-Phe-Cys)-3Pal-NH2] ({Picolinoyl(5-F)}-[dV]YC[Orn](X8)DVGPFC[3Pal]-NH2; disulfide 3-10)
Emax [1, 3]: 100% | IC50 [1, 4]: 0.1 nM | Emax [2, 5]: 100% | IC50 [2, 6]: 26 nM | selectivity ratio CGRP/AM2 [2]: 249

CC(C)NCCC[C@@H]1NC(=O)[C@@H](NC(=O)[C@H](Cc2ccc(O)cc2)NC(=O)[C@H](NC(=O)c2ccc(F)cn2)C(C)C)CSSC[C@@H](C(=O)N[C@@H](Cc2cccnc2)C(N)=O)NC(=O)[C@H](Cc2ccc(CO)cc2)NC(=O)[C@@H]2CCCN2C(=O)CNC(=O)[C@H](C(C)C)NC(=O)[C@H](CC(=O)O)NC1=O [Compound 61, Picolinoyl(5-F)-D-Val-Tyr-c(Cys-Orn(iPr)-Asp-Val-Gly-Pro-Phe(4-CH2OH)-Cys)-3Pal-NH2] ({Picolinoyl(5-F)}-[dV]YC[Orn(iPr)]DVGP[X5]C[3Pal]-NH2; disulfide 3-10)
Emax [1, 3]: 100% | IC50 [1, 4]: 0.1 nM | Emax [2, 5]: 100% | IC50 [2, 6]: 89 nM | selectivity ratio CGRP/AM2 [2]: 934

CC(C)NCCC[C@@H]1NC(=O)[C@@H](NC(=O)[C@H](Cc2ccccc2C(N)=O)NC(=O)[C@H](NC(=O)c2ncco2)C(C)C)CSSC[C@@H](C(=O)N[C@@H](Cc2cccnc2)C(N)=O)NC(=O)[C@H](Cc2ccc(N)cc2)NC(=O)[C@@H]2C=CCN2C(=O)CNC(=O)[C@H](C(C)C)NC(=O)[C@H](CC(=O)O)NC1=O [Compound 59, Oxazole-2-carbonyl-D-Val-Phe(2-Cbm)-c(Cys-Orn(iPr)-Asp-Val-Gly-Dhp-4Aph-Cys)-3Pal-NH2] (Oxazole2carbonyl-[dV][Phe(2-CONH2)]C[Orn(iPr)]DVG[ΔPro][Phe(4-NH2)]C[3Pal]-NH2; disulfide 3-10)
Emax [1, 3]: 100% | IC50 [1, 4]: 0.17 nM | Emax [2, 5]: 99% | IC50 [2, 6]: 467 nM | selectivity ratio CGRP/AM2 [2]: 2770

CC(C)[C@@H]1NC(=O)[C@H](CC(=O)O)NC(=O)[C@H](CCNc2nc(N)n[nH]2)NC(=O)[C@@H](NC(=O)[C@H](Cc2ccccc2C(N)=O)NC(=O)[C@H](NC(=O)c2ncco2)C(C)C)CSSC[C@@H](C(=O)N[C@@H](Cc2cccnc2)C(N)=O)NC(=O)[C@H](Cc2cccnc2)NC(=O)[C@@H]2CCCN2C(=O)CNC1=O [Compound 42, Oxazole-2-carbonyl-D-Val-Phe(2-Cbm)-c(Cys-Dab(Atz)-Asp-Val-Gly-Pro-3Pal-Cys)-3Pal-NH2] (Oxazole2carbonyl-[dV][Phe(2-CONH2)]C[Dab](Triazol3yl(1,2,4-5-NH2))DVGP[3Pal]C[3Pal]-NH2; disulfide 3-10)
Emax [1, 3]: 100% | Emax [2, 5]: 97%

CC(C)[C@@H]1NC(=O)[C@H](CC(=O)O)NC(=O)[C@H](CCCNC(=N)N)NC(=O)[C@@H](NC(=O)[C@H](Cc2ccc(O)cc2)NC(=O)[C@H](NC(=O)c2nccs2)C(C)C)CSSC[C@@H](C(=O)N[C@@H](Cc2cccnc2)C(N)=O)NC(=O)[C@H](Cc2ccccc2)NC(=O)[C@@H]2CCCN2C(=O)CNC1=O [Compound 33] (X10-[dV]YCRDVGPFC[3Pal]-NH2; disulfide 3-10)
Emax [1, 3]: 100% | IC50 [1, 4]: 0.1 nM | Emax [2, 5]: 100% | IC50 [2, 6]: 11 nM | selectivity ratio CGRP/AM2 [2]: 117

CC(C)NCCCC[C@@H]1NC(=O)[C@@H](NC(=O)[C@H](Cc2ccccc2C(N)=O)NC(=O)[C@H](NC(=O)c2ncco2)C(C)C)CSSC[C@@H](C(=O)N[C@@H](Cc2cccnc2)C(N)=O)NC(=O)[C@H](Cc2cccnc2)NC(=O)[C@@H]2CCCN2C(=O)CNC(=O)[C@H](C(C)C)NC(=O)[C@H](CC(=O)O)NC1=O [Compound 41, Oxazole-2-carbonyl-D-Val-Phe(2-Cbm)-c(Cys-Lys(iPr)-Asp-Val-Gly-Pro-3Pal-Cys)-3Pal-NH2] (Oxazole2carbonyl-[dV][Phe(2-CONH2)]C[Lys(iPr)]DVGP[3Pal]C[3Pal]-NH2; disulfide 3-10)
Emax [1, 3]: 100% | IC50 [1, 4]: 0.13 nM | Emax [2, 5]: 97% | IC50 [2, 6]: 1020 nM | selectivity ratio CGRP/AM2 [2]: 8075

CC(C)NCCC[C@@H]1NC(=O)[C@@H](NC(=O)[C@H](Cc2ccc(O)cc2)NC(=O)[C@H](NC(=O)c2ccc(F)cn2)C(C)C)CSSC[C@@H](C(=O)N[C@@H](Cc2cccnc2)C(N)=O)NC(=O)[C@H](Cc2ccccc2)NC(=O)[C@@H]2CCCN2C(=O)CNC(=O)[C@H](C(C)C)NC(=O)[C@H](CC(=O)O)NC1=O [Compound 14, Picolinoyl(5-F)-D-Val-Tyr-c(Cys-Orn(iPr)-Asp-Val-Gly-Pro-Phe-Cys)-3Pal-NH2] ({Picolinoyl(5-F)}-[dV]YC[Orn(iPr)]DVGPFC[3Pal]-NH2; disulfide 3-10)
Emax [1, 3]: 100% | IC50 [1, 4]: 0.12 nM | Emax [2, 5]: 100% | IC50 [2, 6]: 20 nM | selectivity ratio CGRP/AM2 [2]: 167

Cc1cccnc1C(=O)N[C@@H](C(=O)N[C@@H](Cc1ccc(O)cc1)C(=O)N[C@H]1CSSC[C@@H](C(=O)N[C@@H](Cc2cccnc2)C(N)=O)NC(=O)[C@H](Cc2ccccc2)NC(=O)[C@@H]2CCCN2C(=O)CNC(=O)[C@H](C(C)C)NC(=O)[C@H](CC(=O)O)NC(=O)[C@H](CCCNC(=N)N)NC1=O)C(C)C [Compound 34] (X12-[dV]YCRDVGPFC[3Pal]-NH2; disulfide 3-10)
Emax [1, 3]: 100% | IC50 [1, 4]: 0.14 nM | Emax [2, 5]: 100% | IC50 [2, 6]: 7.9 nM | selectivity ratio CGRP/AM2 [2]: 58

CC(C)NCCC[C@@H]1NC(=O)[C@@H](NC(=O)[C@H](Cc2ccccc2C(N)=O)NC(=O)[C@H](NC(=O)c2ccccn2)C(C)C)CSSC[C@@H](C(=O)N[C@@H](Cc2cccnc2)C(N)=O)NC(=O)[C@H](Cc2cccc(CN)c2)NC(=O)[C@@H]2C=CCN2C(=O)CNC(=O)[C@H](C(C)C)NC(=O)[C@H](CC(=O)O)NC1=O [Compound 54, Picolinoyl-D-Val-Phe(2-Cbm)-c(Cys-Orn(iPr)-Asp-Val-Gly-Dhp-Phe(3-CH2NH2)-Cys)-3Pal-NH2] (Picolinoyl-[dV][Phe(2-CONH2)]C[Orn(iPr)]DVG[ΔPro][Phe(3-CH2NH2)]C[3Pal]-NH2; disulfide 3-10)
Emax [1, 3]: 100% | IC50 [1, 4]: 0.17 nM | Emax [2, 5]: 99% | IC50 [2, 6]: 150 nM | selectivity ratio CGRP/AM2 [2]: 898

CC(C)[C@@H]1NC(=O)[C@H](CC(=O)O)NC(=O)[C@H](CN)NC(=O)[C@@H](NC(=O)[C@H](Cc2ccc(O)cc2)NC(=O)[C@H](NC(=O)c2ccccc2)C(C)C)CSSC[C@@H](C(=O)N[C@@H](Cc2cccnc2)C(N)=O)NC(=O)[C@H](Cc2ccccc2)NC(=O)[C@@H]2CCCN2C(=O)CNC1=O [Ref. Cpd. 2, Bz-D-Val-Tyr-c(Cys-Dpr-Asp-Val-Gly-Pro-Phe-Cys)-3Pal-NH2, reference compound] (Bz-[dV]YC[Dap]DVGPFC[3Pal]-NH2; disulfide 3-10)
IC50 ([1]; hCGRP-R IC50 Ave, agonist human α-CGRP): 0.52 nM | Emax [1]: 100% | IC50 ([2]; hAM2-R IC50 Ave, agonist human adrenomedullin): 200 nM | Emax [2]: 100% | selectivity ratio CGRP/AM2 [2]: 387

CC(C)[C@@H]1NC(=O)[C@H](CC(=O)O)NC(=O)[C@H](CN)NC(=O)[C@@H](NC(=O)[C@H](Cc2ccc(O)cc2)NC(=O)[C@H](NC(=O)c2ccc(F)cc2)C(C)C)CSSC[C@@H](C(=O)N[C@@H](Cc2cccnc2)C(N)=O)NC(=O)[C@H](Cc2ccc(O)cc2)NC(=O)[C@@H]2CCCN2C(=O)CNC1=O [Compound 7, Bz(4-F)-D-Val-Tyr-c(Cys-Dpr-Asp-Val-Gly-Pro-Tyr-Cys)-3Pal-NH2] ({Benzoyl(4-F)}-[dV]YC[Dap]DVGPYC[3Pal]-NH2; disulfide 3-10)
Emax [1, 3]: 100% | IC50 [1, 4]: 0.13 nM | Emax [2, 5]: 100% | IC50 [2, 6]: 43 nM | selectivity ratio CGRP/AM2 [2]: 334

CC(C)NCC[C@@H]1NC(=O)[C@@H](NC(=O)[C@H](Cc2ccc(O)cc2)NC(=O)[C@H](NC(=O)c2ccccn2)C(C)C)CSSC[C@@H](C(=O)N[C@@H](Cc2cccnc2)C(N)=O)NC(=O)[C@H](Cc2ccccc2)NC(=O)[C@@H]2CCCN2C(=O)CNC(=O)[C@H](C(C)C)NC(=O)[C@H](CC(=O)O)NC1=O [Compound 9, Picolinoyl-D-Val-Tyr-c(Cys-Dab(iPr)-Asp-Val-Gly-Pro-Phe-Cys)-3Pal-NH2] (Picolinoyl-[dV]YC[Dab(iPr)]DVGPFC[3Pal]-NH2; disulfide 3-10)
Emax [1, 3]: 100% | IC50 [1, 4]: 0.15 nM | Emax [2, 5]: 106% | IC50 [2, 6]: 51 nM | selectivity ratio CGRP/AM2 [2]: 351
